Measured values as given in paper PMC12406258, “Uncovering the Unusual Inhibition Mechanism of a Trypanosome Alternative Oxidase Inhibitor Displaying Broad-Spectrum Activity against African Animal Trypanosomes” (Journal of Medicinal Chemistry, 2025).
“And” between values parts separate entries of the source, which are not always exact repeats. Equal entries are not always repeated. Where two headings read alike, the source gives them in different places.

Columns and labels:
[1] = target: T1, recombinant TAO (ΔMTS rTAO) (Trypanosoma brucei brucei, UniProt Q26710); conditions: ref earlier reports; cited from earlier work
T1 construct: […]; SUMO (Small Ubiquitin-related Modifier) fusion from the expression system; made in house
T1 sequence (Q26710 26-329, stated change not applied): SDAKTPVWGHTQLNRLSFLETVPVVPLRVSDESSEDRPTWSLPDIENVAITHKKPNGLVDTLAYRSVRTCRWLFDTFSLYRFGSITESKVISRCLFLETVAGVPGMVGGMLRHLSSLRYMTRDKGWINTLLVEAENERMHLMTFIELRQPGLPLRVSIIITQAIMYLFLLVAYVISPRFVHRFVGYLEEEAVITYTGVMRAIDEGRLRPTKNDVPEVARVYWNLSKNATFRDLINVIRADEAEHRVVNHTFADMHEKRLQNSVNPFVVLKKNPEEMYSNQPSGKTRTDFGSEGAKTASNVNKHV

[2] = target: T1, recombinant TAO (ΔMTS rTAO); assay: Inhibition of ubiquinol oxidase activity of purified recombinant TAO; type: biochemical, T. brucei
Description: This physiologically relevant rTAO enzyme was used throughout this work and in this experiment to study the inhibitory activity of 1.
As previously described, the Ubiquinol oxidase activity measurement was carried out using recombinant TAO lacking the mitochondrial targeting signal (ΔMTS). […] The reaction was carried out in a 1 cm cuvette for 2 min using a V-630 Jasco UV–vis spectrophotometer (Jasco Corporation, Tokyo, Japan). Briefly, the procedure involves preincubating 250 ng of the enzyme for 2 min in a 50 mM Tris-HCl (pH 7.3) buffer containing the detergent octaethylene glycol monododecylether (0.05% (w/v)) in a total reaction volume of 1 mL at 25 °C. […] For the inhibition reaction, 250 ng of the enzyme was preincubated with varying inhibitor concentrations for 2 min using the same buffer before the substrate was added. […] This was achieved using the same protocol but without TAO. […] The residual activities were plotted against the corresponding inhibitor concentration in a GraphPad Prism-9 software to obtain the IC50 value.

[3] = target: T1, recombinant TAO (ΔMTS rTAO); conditions: ref reported earlier, cited from earlier work
[4] = tested on: STIB900 mouse model; set-up: method as in previous studies; conditions: 24 h after the last treatment, 4 × 10 mg/kg ip; ref previous studies; cited from earlier work
[5] = set-up: method as in previous studies; conditions: ref previous studies, cited from earlier work
[6] = tested on: T. b. brucei WT (s427) trypomastigotes; assay: microbe, parasite or virus in culture; type: cell-based; conditions: Trypanosoma brucei
Description: (§1) Other Trypanosoma species used in this study include T. evansi AntTat 3/3 (Wild-type); and T. equiperdum BoTat 1 (Bordeaux trypanozoon antigenic type 1) P (wild-type). All the trypanosomes were used only as bloodstream trypomastigotes and cultured in the standard Hirumi’s Modified Iscove’s medium #9 (HMI-9), supplemented with 10% heat-inactivated Fetal Bovine Serum (FBS), 14 μL/L β-mercaptoethanol, and 3.0 g sodium hydrogen carbonate per liter of medium (pH 7.4). Trypanosomes were cultured in vented flasks at 37 °C in a 5% CO2 atmosphere.
(§2) Briefly, this protocol involves preparing a 96-well cell culture plate with a 100 μL serially diluted test compound (200 μM top concentration) in HMI-9 + 10% FBS (24 wells per control drug or test compound, with the 24th well serving as drug-free). This is followed by adjusting the cell density of mid-log-phase trypanosome cultures to the required concentration of 2 × 10^5 cells/mL (2 × 10^4 cells/well). […] All incubations were carried out at 37 °C with 5% CO2. […] EC50 values were calculated using GraphPad Prism 9.0 software via nonlinear regression with an equation for a sigmoidal dose–response curve with variable slope (GraphPad Software Inc., San Diego, CA, USA).

[7] = tested on: T. brucei B48; assay: microbe, parasite or virus in culture; type: cell-based, T. b. brucei; conditions: Trypanosoma brucei, read-out: T. brucei B48 EC50
Description: as §1, §2

[8] = tested on: T. evansi WT; assay: Resazurin-based drug sensitivity assay, T. evansi WT; type: cell-based
Description: as §1, §2

[9] = tested on: T. equiperdum WT; assay: Resazurin-based drug sensitivity assay, T. equiperdum WT; type: cell-based; conditions: Trypanosoma equiperdum
Description: as §1, §2

[10] = tested on: T. congolense WT; assay: Drug sensitivity assay, T. congolense WT bloodstream forms; type: cell-based; conditions: Trypanosoma congolense
Description: The susceptibilities of trypanosomes to compound 1 were determined as previously described using the resazurin (Alamar Blue) assay. Briefly, this protocol involves preparing a 96-well cell culture plate with a 100 μL serially diluted test compound (200 μM top concentration) in HMI-9 + 10% FBS (24 wells per control drug or test compound, with the 24th well serving as drug-free). This is followed by adjusting the cell density of mid-log-phase trypanosome cultures to the required concentration of 2 × 10^5 cells/mL (2 × 10^4 cells/well). Then, 100 μL of the adjusted cell density/culture was added to all 24 wells in the plate, then incubating trypanosomes and test compound for 48 h followed by the addition of 20 μL filter-sterilized resazurin solution prepared by adding 25 mg resazurin sodium salt to 200 mL filter-sterilized PBS. This was followed by a further 24 h of incubation. All incubations were carried out at 37 °C with 5% CO2. […] Fluorescence was measured in the 96-well plates with a FLUOstar Optima (BMG Labtech, Durham, NC, USA) at wavelengths of 544 nm for excitation, 590 for emission, and a gain of 1250. EC50 values were calculated using GraphPad Prism 9.0 software via nonlinear regression with an equation for a sigmoidal dose–response curve with variable slope (GraphPad Software Inc., San Diego, CA, USA).

[11] = tested on: T. brucei aqp1-3 null; assay: microbe, parasite or virus in culture; type: cell-based, T. b. brucei; conditions: Trypanosoma brucei, read-out: aqp1-3 null EC50
Description: as §1, §2

[12] = tested on: T. b. brucei SUR10; assay: microbe, parasite or virus in culture; type: cell-based; conditions: Trypanosoma brucei, read-out: SUR10 EC50
[13] = read-out: IC50 against rTAO, activity against TAO reported earlier
[14] = read-out: rTAO IC50 (supplementary csv, compounds 4, 6, 8-10, 12), IC50 (µM)

Question: For `C/C(=C\Cc1c(O)c(Cl)c(C)c(C=O)c1O)CC/C=C(\C)[C@@H]1CC(=O)C(C)(C)O1` [AF, Ascofuranone, reference compound], which “Type of inhibition of TAO” value [1] is on record?
Answer: competitive

Question: Which IC50 [2] does the source give for `Cc1cc(O)cc(O)c1C(=O)OCCCCCCCCCCCCCC[P+](c1ccccc1)(c1ccccc1)c1ccccn1` [Compound 2, {14-[(2,4-Dihydroxy-6-methylbenzoyl)-oxy]-tetradecyl}-diphenyl(pyridin-2-yl)-Phosphonium Bromide] here?
Answer: 1600 nM

Question: Which IC50 [2] does the source give for `Cc1cc(O)ccc1C(=O)CCCCCCCCCCCCCCC[P+](c1ccccc1)(c1ccccc1)c1ccccn1.[Br-]` [Compound 3] here?
Answer: > 5000 nM

Question: What about the “Inhibition of TAO at the highest concentration tested” value ([2]; 5 μM) of the same compound?
Answer: did not inhibit

Question: Which IC50 [3, 13] does the source give for `Cc1cc(O)ccc1C(=O)OCCCCCCCCCCCCCC[P+](c1ccccc1)(c1ccccc1)c1ccccc1` [Compound 4] here?
Answer: 0.081 µM and ~0.08 µM

Question: Which results are given for `Cc1cc(O)ccc1C(=O)OCCCCCCCCCCCCCC[n+]1cccc2ccccc21.[Br-]` [Compound 6]?
Answer: IC50 [3, 14]: 0.03 ± 0.005 µM; Type of inhibition of TAO [1]: competitive

Question: For `Cc1c(Cl)c(O)c(Cl)c(O)c1C(=O)OCCCCCCCCCCCCCC[P+](c1ccccc1)(c1ccccc1)c1ccccc1` [Compound 7, {14-[(3,5-Dichloro-2,4-dihydroxy-6-methylbenzoyl)-oxy]-tetradecyl}-Triphenylphosphonium Bromide], which IC50 [2] is on record?
Answer: 160 nM

Question: With `Cc1cc(O)cc(O)c1C(=O)OCCCCCCCCCCCCCC[P+](c1ccccc1)(c1ccccc1)c1ccccc1.[Br-]` [Compound 8] as the compound, how does the Reduction of parasitemia [4] read?
Answer: 95%

Question: What about the “Half-life (phase 2 metabolism)” value ([5]; S9 fraction and cofactor UDPGA) of the same compound?
Answer: approximately 2 h

Question: And the IC50 [3, 13]?
Answer: ~0.08 µM and 0.088 µM

Question: What about the “Type of inhibition of TAO” value [1] of the same compound?
Answer: competitive

Question: Which results are given for `Cc1cc(O)cc(O)c1C(=O)OCCCCCCCCCCCCCC[n+]1cccc2ccccc21.[Br-]` [Compound 9]?
Answer: Reduction of parasitemia [4]: 95%; Phase 2 metabolism [5]: lack of phase 2 metabolism; IC50 [3, 14]: 0.104 ± 0.011 µM

Question: Which IC50 [3, 14] does the source give for `Cc1cc[n+](CCCCCCCCCCCCCCOC(=O)c2c(C)cc(O)cc2O)cc1` [Compound 10] here?
Answer: > 5 µM

Question: For `N=C(N)c1ccc(/N=N/Nc2ccc(C(=N)N)cc2)cc1` [Dim., Diminazene aceturate], which EC50 ([6]; read-out: T. b. brucei WT (+5 mM glycerol) EC50) is on record?
Answer: 81 ± 13 nM

Question: What about the EC50 ([6]; read-out: T. b. brucei WT (no glycerol) EC50) of the same compound?
Answer: 65 ± 21 nM

Question: And the EC50 [7]?
Answer: 1220 ± 20 nM

Question: And the EC50 [8]?
Answer: 51.4 ± 12 nM

Question: And the EC50 [9]?
Answer: 33.2 ± 10 nM

Question: And the EC50 [10]?
Answer: 252 ± 18 nM

Question: Which EC50 ([6]; read-out: T. b. brucei WT (+5 mM glycerol) EC50, incubated in the presence of 5 mM glycerol) does the source give for `N=C(N)c1ccc(OCCCCCOc2ccc(C(=N)N)cc2)cc1` [Pent., Pentamidine isethionate] here?
Answer: 6.2 ± 1.7 nM

Question: What about the EC50 ([6]; s427, no glycerol, n ≥ 4, read-out: T. b. brucei WT (no glycerol) EC50) of the same compound?
Answer: 4.2 ± 0.8 nM

Question: And the EC50 [11]?
Answer: 51.4 ± 11.8 nM

Question: And the EC50 [7]?
Answer: 1020 ± 200 nM

Question: What about the EC50 [8] of the same compound?
Answer: 5.1 ± 2.1 nM

Question: What about the EC50 [9] of the same compound?
Answer: 8.1 ± 1.1 nM

Question: With `O=C(NO)c1ccccc1O` [SHAM, Salicylhydroxamic acid] as the compound, how does the EC50 [11] read?
Answer: 6880 ± 110 nM

Question: With `Cc1ccc(C(=O)Nc2ccc(S(=O)(=O)O)c3cc(S(=O)(=O)O)cc(S(=O)(=O)O)c23)cc1NC(=O)c1cccc(NC(=O)Nc2cccc(C(=O)Nc3cc(C(=O)Nc4ccc(S(=O)(=O)O)c5cc(S(=O)(=O)O)cc(S(=O)(=O)O)c45)ccc3C)c2)c1` [Suramin, reference compound] as the compound, how does the EC50 [12] read?
Answer: 190 ± 20 nM
